The structures appear in SMILES notation. The source made the active and inactive calls. The rule behind the calls is not given here.

The target of the assay is Induced myeloid leukemia cell differentiation protein Mcl-1 (Homo sapiens) (UniProt Q07820). Description: modulators of Bim peptide binding to Mcl-1, dose response, biochemical, bead-based flow cytometry, multiplexed, human (AID 1329). Particulars: Bim peptide-Mcl-1 binding, MCF.
Sequence of Induced myeloid leukemia cell differentiation protein Mcl-1 (Homo sapiens) (Q07820 whole entry, looked up): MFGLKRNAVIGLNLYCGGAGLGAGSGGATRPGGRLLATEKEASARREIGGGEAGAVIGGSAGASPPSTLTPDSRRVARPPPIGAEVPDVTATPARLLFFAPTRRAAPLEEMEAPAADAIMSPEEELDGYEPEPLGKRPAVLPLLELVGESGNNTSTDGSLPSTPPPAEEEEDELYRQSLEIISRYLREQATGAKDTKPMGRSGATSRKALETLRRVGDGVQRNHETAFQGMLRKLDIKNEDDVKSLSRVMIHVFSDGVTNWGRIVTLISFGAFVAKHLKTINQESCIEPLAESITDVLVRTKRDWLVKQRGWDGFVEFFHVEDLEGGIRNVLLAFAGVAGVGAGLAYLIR
Turning to `Cc1ccc(CC(=O)OCCNC(=O)c2cccnc2)cc1`, the percent span result was “inactive”.
Consider `Cc1cc(/C=C(/C#N)C(=O)Nc2ccc(Cl)cc2)c(C)n1-c1cccnc1`, for which the percent span entry was “inactive”.
The entry for `Cc1nc2scc(-c3ccccc3)c2c(=O)n1N=C1C=CC(=O)C=C1` is “inactive”.
Take `Nc1cccc(-c2cn3cccnc3n2)c1`: the percent span result was “inactive”.
The entry for `CC(=O)Nc1ccc(NC2=C(Cl)C(=O)c3ccccc3C2=O)cc1` is “inactive”; for `COc1ccc(NC(=O)C2=C(C)NC(=O)NC2c2cccc(OC)c2OC)c(OC)c1` (configuration not stated) it is “inactive”.
The entry for `CN(C(=O)NC1CCCCC1)c1ccccc1` is “inactive”.
The entry for `COc1ccc(-n2c(SCC(=O)Nc3ccc(C(=O)O)cc3)nnc2-c2cccs2)cc1` is “inactive”; for `COc1ccccc1NC1=C(NC(C)=O)C(=O)c2ccccc2C1=O` it is “inactive”; for `S=c1[nH]cc(-c2ccccc2)n1-c1ccccc1Cl` it is “inactive”.
On to `COc1cc(OC)c([N+](=O)[O-])cc1/C=N/NC(=O)c1ccncc1`, for which the percent span entry is “inactive”.
As for `COc1ccc(/C=C/C(=O)Nc2sc(Cc3ccccc3)c(C)c2C(N)=O)cc1`, the percent span result is “inactive”.
The entry for `O=C1c2ccccc2-c2onc3ccc(NCCCn4ccnc4)c1c23` is “inactive”; for `O=C1/C(=C/c2cccs2)Sc2ccccc21` it is “inactive”; for `COc1cccc(/C=N/Nc2nn3cnnc3c3ccccc23)c1O` it is “inactive”.
Turning to `CCN(CC)c1ccc(NC(=O)COc2ccccc2C)cc1S(=O)(=O)Nc1ccccc1OC`, the percent span entry is “inactive”.
In the case of `CCc1cccc(CC)c1NC(=S)N1CCn2cccc2C1c1cccnc1` (configuration not stated) it was “inactive”; in that of `CCc1ccc(NC(=O)Cc2ccc(OC)cc2)cc1`, “inactive”.
The entry for `Nc1ccc(N2CCN(CCCCN3C(=O)C4CCCN4C3=O)CC2)cc1` (configuration not stated) is “inactive”; for `COc1ccccc1-n1c(-c2ccccc2)c[nH]c1=S` it is “inactive”.
In the case of `C=CCN1C(=O)/C(=C/c2ccsc2)SC1=S` it was “inactive”.
As to `O=C(CSc1nnc(-c2cccs2)n1Cc1ccco1)c1ccc2c(c1)OCO2`, the percent span entry was “inactive”.
As to `COc1ccc(NC(=O)c2ccco2)cc1NC(=O)c1ccco1`, the percent span entry was “inactive”.
Take `Cc1ccc(OCc2cn3cccnc3n2)cc1`: the percent span entry was “inactive”.
`CCNC(=O)N1c2ccc(OCC)cc2C(C)=CC1(C)C`: the percent span entry was “inactive”.
Consider `Oc1ccc(NCc2ccccc2OCc2ccccc2)cc1`, for which the percent span result is “inactive”.
The entry for `CCN1CCN(c2cc(C)c3cc(NC(=S)N4CCCCC4)ccc3n2)CC1` is “inactive”; for `Cc1ccc(-c2cc(-c3ccc(F)cc3)nc(N)c2C#N)o1` it is “inactive”; for `Cc1ccc(C(=O)NNC(=O)c2ccc3ncccc3c2)cc1` it is “inactive”.
Consider `CC(C)CNC(=O)c1cccc(NC(=O)c2ccc(Cl)c([N+](=O)[O-])c2)c1`, for which the percent span result was “inactive”.
In the case of `CCOc1ccc(N2C(=O)C(Cl)=C(Nc3ccccc3O)C2=O)cc1` it was “inactive”; in that of `CCOC(=O)C1(Cc2cccc(OC)c2)CCN(Cc2cccc(OC)c2OC)CC1`, “inactive”; in that of `CCN=c1scc(C)n1/N=C/c1ccc(O)c(O)c1O`, “inactive”.
As to `Cc1ccc(NC(=O)CC2S/C(=N/N=C/c3c[nH]c4ccccc34)NC2=O)cc1` (configuration not stated), the percent span entry was “inactive”.
As to `C/C(=N\NC(=O)Cc1cccn1C)c1ccc2ccccc2c1`, the percent span result was “inactive”.
In the case of `COc1ccc(N2CC(C(=O)Nc3nnc(SCC(=O)c4ccccc4)s3)CC2=O)cc1` (configuration not stated) it was “inactive”; in that of `O=C(/C=C/c1c(F)cccc1Cl)Nc1ccncc1`, “inactive”.
The entry for `COc1ccc(OC)c(NC(=O)CCCN2C(=S)NC(C)(C)CC2C)c1` (configuration not stated) is “inactive”; for `COC(=O)c1c(C(=O)OC)c2cccc3cc(-c4ccccc4)c4ccc1c4n32` it is “inactive”.
`COc1cc(C2Nc3cccc4cccc(c34)N2)ccc1OC(C)=O`: the percent span entry was “inactive”.
In the case of `O=C(C[n+]1ccc(-c2nnc3n2CCC3)cc1)c1ccc(Cl)cc1` it was “inactive”; in that of `CCOC(=O)C1(CC/C(C)=N\NC(N)=O)CC(C)(C)OC1=O` (configuration not stated), “inactive”.
In the case of `Cc1cccn2c(=O)c3cc(C(N)=S)c(=N)n(CCCN4CCOCC4)c3nc12` it was “inactive”; in that of `C/C(=N\NC(=O)Cn1nc(C)c([N+](=O)[O-])c1C)c1ccc(O)cc1`, “inactive”.
The entry for `N#C/C(=C(/O)CN1CCN(c2ccccc2F)CC1)c1nc(-c2ccccc2)cs1` is “inactive”; for `O=C(N/N=C/c1ccc(-c2ccccc2[N+](=O)[O-])o1)c1cncc(Br)c1` it is “inactive”.
With `Cc1cccc(C(=O)N2CCC(c3nc(-c4ccc(S(=O)(=O)N5CCOCC5)cc4)no3)CC2)c1`, the percent span entry was “inactive”.
Turning to `COc1ccc(NC(=O)c2ccc(CN3CCN(c4ccccc4)CC3)cc2)cc1`, the percent span result is “inactive”.
The entry for `Cc1cc(N2CCN(C)CC2)nc2ccc(NC(=S)N3CCN(c4cccc(Cl)c4)CC3)cc12` is “inactive”; for `CCN(CC)c1nc(N)nc(N(c2ccccc2)c2ccccc2)n1` it is “inactive”.
In the case of `Oc1ccc(C=NCC2COc3ccccc3O2)cc1` (configuration not stated) it was “inactive”; in that of `Cc1ccc(Nc2nc(C)cs2)cc1`, “inactive”.
In the case of `O=C(COc1ccc(Br)cc1CNC1CCCCC1)NCCc1ccccc1` it was “inactive”; in that of `Cc1cc(-c2csc(N)n2)c(C)n1C`, “inactive”; in that of `Cc1ccc(C(=O)N/N=C2/NC(=O)CC(C(=O)Nc3ccccc3)S2)cc1` (configuration not stated), “inactive”.
Consider `O=C(COc1ccccc1Br)NCc1ccccn1`, for which the percent span entry is “inactive”.
For `O=C(Cn1cncc1-c1ccc([N+](=O)[O-])cc1)Nc1ccccc1F`, the percent span result was “inactive”.
The entry for `CNc1ccc(Br)cc(C(=O)/C=C/c2ccc(OC)cc2)c1=O` is “inactive”; for `CCOc1cc(S(=O)(=O)Nc2ccccn2)ccc1F` it is “inactive”.
As to `O=C(COCC(=O)NCc1ccccc1)NCc1ccccc1`, the percent span entry is “inactive”.
Take `COc1cccc(C(=O)/C=C/Nc2ccc(S(=O)(=O)Nc3onc(C)c3C)cc2)c1`: the percent span entry is “inactive”.
In the case of `COC(=O)CSc1ncnc2c1sc1nc(-c3ccco3)c3c(c12)CC(C)(C)OC3` it was “inactive”; in that of `CN(C)S(=O)(=O)N(CC(=O)Nc1ccccc1C(F)(F)F)c1ccccc1`, “inactive”.
Consider `O=C(CCl)Nc1cccc2ncccc12`, for which the percent span result is “inactive”.
Regarding `Cn1c(N)c(C(=O)COC(=O)c2cncc(Br)c2)c(=O)n(C)c1=O`, the percent span result is “inactive”.
Regarding `Clc1ccc(N=c2ssnc2Cl)nc1`, the percent span entry was “inactive”.
Regarding `C/C(=C\c1ccco1)C1Nc2cccc3cccc(c23)N1`, the percent span result is “inactive”.

For the origin of these results see PubChem BioAssay AID1329 (NMMLSC, 2008).
